Source: ChEMBL document CHEMBL3085684, “Unraveling phosphodiesterase surfaces. Identification of phosphodiesterase 7 allosteric modulation cavities” (Eur J Med Chem, 2013)
Calls of active or inactive are those of the source. No cut-off for these calls is given here.

Tests used:
[1] = molecular target: T1, High affinity 3',5'-cyclic-AMP phosphodiesterase 7A (Homo sapiens, UniProt Q13946); assay: Competitive inhibition of human recombinant PDE7A1 using […] after 20 mins by Lineweaver-Burk plot analysis
T1 sequence (Q13946 whole entry): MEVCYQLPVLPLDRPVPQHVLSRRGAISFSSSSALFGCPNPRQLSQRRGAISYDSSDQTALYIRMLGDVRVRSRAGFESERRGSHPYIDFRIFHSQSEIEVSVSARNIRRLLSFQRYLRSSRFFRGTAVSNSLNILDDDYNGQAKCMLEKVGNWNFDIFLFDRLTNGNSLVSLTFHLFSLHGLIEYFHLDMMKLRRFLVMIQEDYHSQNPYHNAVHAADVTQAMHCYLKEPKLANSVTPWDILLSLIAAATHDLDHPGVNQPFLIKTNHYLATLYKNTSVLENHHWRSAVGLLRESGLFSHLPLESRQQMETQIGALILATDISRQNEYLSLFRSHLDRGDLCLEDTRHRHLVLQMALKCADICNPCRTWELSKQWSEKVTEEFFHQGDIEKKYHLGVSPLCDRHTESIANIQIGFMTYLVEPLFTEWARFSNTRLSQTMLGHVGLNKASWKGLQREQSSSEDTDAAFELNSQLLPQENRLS

[2] = molecular target: T1, High affinity 3',5'-cyclic-AMP phosphodiesterase 7A; assay: Inhibition of human recombinant PDE7A1 using […] after 20 mins by scintillation proximity assay
[3] = molecular target: T1, High affinity 3',5'-cyclic-AMP phosphodiesterase 7A; assay: Non-competitive mixed type inhibition of human recombinant PDE7A1 using […] after 20 mins by Lineweaver-Burk plot analysis

Compound: CC(C)Cn1c(=O)n(C)c(=O)c2nc[nH]c21
- competitive inhibition (Lineweaver-Burk) [1]: Active

Compound: CSc1nc2ccccc2c(=S)n1-c1ccccc1Br
- IC50 [2]: 5.33 µM

Compound: Fc1cccc(F)c1-n1c(=S)[nH]c2ccccc2c1=S
- IC50 [2]: 0.48 µM

Compound: CSc1nc2c(C)cccc2c(=O)n1-c1ccccc1Br
- IC50 [2]: 1.69 µM

Compound: O=c1c2ccccc2nc(SCc2ccccc2)n1-c1ccccc1
- competitive inhibition (Lineweaver-Burk) [1]: Active

Compound: S=c1[nH]c2ccccc2c(=S)n1-c1ccccc1
- inhibition [3]: Active

Compound: CSc1nc2c(Cl)cccc2c(=O)n1-c1c(F)cccc1F
- IC50 [2]: 15.2 µM

Compound: CSc1nc2ccccc2c(=S)n1-c1c(F)cccc1F
- IC50 [2]: 3.23 µM

Compound: CSc1nc2ccccc2c(=O)n1-c1c(F)cccc1F
- competitive inhibition (Lineweaver-Burk) [1]: Active

Compound: CSc1nc2ccc(Br)cc2c(=O)n1-c1ccc(F)c(F)c1F
- IC50 [2]: 5.07 µM

Compound: O=c1c2ccccc2[nH]c(=S)n1-c1ccc(F)c(F)c1F
- IC50 [2]: 7.02 µM

Compound: Cc1cccc2c(=O)n(-c3c(F)cccc3F)c(=S)[nH]c12
- IC50 [2]: 9.3 µM

Compound: CCSc1nc2ccccc2c(=O)n1-c1ccccc1
- competitive inhibition (Lineweaver-Burk) [1]: Active

Compound: O=c1c2ccccc2[nH]c(=S)n1-c1ccccc1
- inhibition [3]: Active
